Patent publication US9296691B2, “Inhibitors of p75 receptor and their uses” (Horacio Uri Saragovi, priority 2010, dated 2016)

T1: p75-Fc (Homo sapiens, UniProt P08138)
T1 construct: purchased R&D
T1 sequence (P08138 29-250 limits assumed): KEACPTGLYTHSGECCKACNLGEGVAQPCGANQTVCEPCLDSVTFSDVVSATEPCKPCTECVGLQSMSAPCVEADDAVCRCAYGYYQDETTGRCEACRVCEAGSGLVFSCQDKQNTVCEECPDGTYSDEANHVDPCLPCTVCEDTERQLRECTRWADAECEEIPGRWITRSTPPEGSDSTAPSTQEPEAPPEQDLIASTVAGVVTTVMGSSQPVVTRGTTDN

B1: pro-BDNF: precursor of brain derived neurotrophic factor (Alomone Labs), pro-apoptotic p75 ligand (protein, UniProt P23560 19-247, looked up)
pro-form: APMKEANIRGQGGLAYPGVRTHGTLESVNGPKAGSRGLTSLADTFEHVIEELLDEDQKVRPNEENNKDADLYTSRVMLSSQVPLEPPLLFLLEEYKNYLDAANMSMRVRRHSDPARRGELSVCDSISEWVTAADKKTAVDMSGGTVTVLEKVPVSKGQLKQYFYETKCNPMGYTKEGCRGIDKRHWNSQCRTTQSYVRALTMDSKKRIGWRFIRIDTSCVCTLTIKRGR
modifications: pro-form
notes: precursor of brain derived neurotrophic factor (Alomone Labs), pro-apoptotic p75 ligand

How the values were obtained:
[1] = target: T1, p75-Fc; test: Competitive ELISA, p75-Fc binding to immobilized NGF; conditions: for remaining activity at 30 µM: 0.75 h, binding to immobilized NGF, no cpd = 100%, p75-Fc 50 nM, as described for FIG. 1A (compounds 30 μM), below 100% indicates inhibition
Procedure: (§1) The effect of compounds I-B and LM-24 on the binding between NGF and p75 was tested in competitive ELISA assays, where the antagonists prevent soluble p75 from binding to immobilized NGF. The selectivity of antagonism was evaluated by lack of effect upon NGF-TrkA or lack of effect between NGF and anti-NGF monoclonal antibody (mAb) NGF30 interactions (FIG. 1A).
The compound LM-24 has been reported by others (Massa et al., 2006). Binding studies were carried out with all the compounds using I-B as reference.
(§2) Competitive ELISAs were performed as described (Saragovi et al., 1998). The procedure immobilized 50 ng/well NGF, or pro-NGF (Alomone Labs, Israel) onto polystyrene 96-well microtest plates, with washing and blocking with binding buffer (BB; phosphate buffered saline containing 0.5% bovine serum albumin). The following primary reagents in BB were added: recombinant chimeric p75-Fc or recombinant chimeric TrkA-Fc (R&D), or anti-NGF mAb NGF30 (Saragovi et al., 1998); each at 50 nM. The competitors I-B and the other test compounds (or control LM-24) were added at the indicated concentrations, and the plates were incubated for 45 minutes. After washing 3× in BB, HRP-conjugated secondary reagents (Sigma) were added for 30 min (goat anti-human Fc for p75-Fc and for TrkA-Fc; and goat anti-rat Ab for NGF30 mAb), and then wells were washed 3× in BB and 1× in PBS. Peroxidase activity was determined colorimetrically using the substrate TMB One Solution (Promega). The reaction was stopped with 0.5 N H2SO4 and the plates were read at 450 nm (Benchmark Plus, Bio-Rad). Assays were repeated n>4 times, with replicates of 4 wells each assay. […] Wells with no NGF immobilized but with all other reagents added were treated as background (<15% of maximal signals) and standardized to 0% binding.

[2] = tested on: anti-NGF mAb NGF30; test: Competitive ELISA, anti-NGF mAb NGF30 binding to immobilized NGF (selectivity control); conditions: for NGF30 binding AVERAGE: binding to immobilized NGF, no cpd = 100%, mAb NGF30 50 nM, as described for FIG. 1A
Procedure: as §1, §2

[3] = target: T2, TrkA-Fc (Homo sapiens, UniProt P04629); test: Competitive ELISA, TrkA-Fc binding to immobilized NGF (selectivity control); conditions: for TrkA-Fc binding AVERAGE: binding to immobilized NGF, no cpd = 100%, TrkA-Fc 50 nM, as described for FIG. 1A
T2 construct: purchased R&D
Procedure: as §1, §2

[4] = tested on: nnr5 cells; test: Pro-NTF killing assay (MTT), nnr5 cells; format: cell-based; conditions: 50 nM, 72 hours, p<0.05
Procedure: (§3) The effect of I-B on the pro-apoptotic function of pro-NGF or pro-BDNF was tested in functional MTT assays measuring cell metabolism (FIG. 1B).
(§4) Cells (5,000 cells/well) were cultured in 96-well plates (Falcon, Lincoln Park, N.J.) in normal culture media (RPMI1640, Hepes, Glutamine, 5% serum). Wells were supplemented with NGF, BDNF, pro-NGF, or pro-BDNF (Alomone Labs) (50 nM final), in the presence or absence of I-B (20 μM final). Wells containing all culture conditions but no cells were used as blanks. The growth/survival profile of the cells was quantified using MTT (Sigma) 72 hours after plating. Optical density readings of MTT were done in a Benchmark Plus microplate Spectrophotometer (BioRad) at 595 nm with blanks subtracted.

[5] = tested on: B104 cells; test: Pro-NTF killing assay (MTT), B104 cells; format: cell-based; conditions: 50 nM, 72 hours, p<0.05
Procedure: as §3, §4

[6] = tested on: NGI (NFL-GCL-IPL) retinal layers; test: ON axotomy model, retinal NGI thickness by FD-OCT; format: in vivo; conditions: rat ON axotomy, 3 μg intravitreal immediately after axotomy, days 11 and 14, versus untreated axotomy
Procedure: Antagonists of p75NTR prevented loss of retinal structure after ON axotomy. The relative in vivo efficacy for I-B and LM-24 was tested using the ON axotomy model. A quantitative non-invasive structural endpoint, FD-OCT, was performed in the same animal over time to measure the integrity of the neuronal layers. We quantified the axons and fibers of the RGCs that contribute to the thickness of the Nerve Fiber Layer (NFL), the Ganglion Cell Layer (GCL), and the Inner Plexiform Layer (IPL), herein termed NGI. Maintenance of NGI structure correlates with RGC health (Bai et al., 2010a).
Wistar rats (female, 250-300 g; Charles River) were kept in a 12 hours dark-light cycle with food and water ad libitum. All animal manipulations were performed between 9 AM and 12 AM. […]
FD-OCT is a non-invasive method that allows time-kinetic studies in the same animal. […] In each B-scan the thickness of the NFL-GCL-IPL (NGI) was measured at four adjacent points at a distance 1.5 mm from the ON head. […]
(§5) For studies in the glaucoma animal model the injections were performed at days 14 and 21 after cauterization. […] Thus, in this paradigm there is pre-existing damage for 14 days before treatment (measured at ˜8% RGC death (Shi et al., 2007; Shi et al., 2008)); and the treatments require long-lived efficacy in the constant presence of retinal stress due to high IOP. […]

[7] = tested on: retinal ganglion cells (RGCs); test: ON axotomy model, quantification of surviving RGCs (fluorogold labeled); format: in vivo; conditions: rat ON axotomy, one intravitreal injection 3 μg, day 14; contralateral normal eye = 100%; control axotomy 10%
Procedure: (§6) Wistar rats (female, 250-300 g; Charles River) were kept in a 12 hours dark-light cycle with food and water ad libitum. All animal manipulations were performed between 9 AM and 12 AM. Deep anesthesia was used during cauterization (induction of glaucoma), ON transection, fluorogold labeling, intraocular injection procedures, Optical Coherence Tomography measurements, and euthanasia (ketamine, xylazine, acepromazine injected intraperitoneally: 50/5/1 mg/kg, as per IACUC recommendations). For measuring IOP, light anesthesia was used (a gas mixture of Oxygen, 2% isofluorane mixture, at a rate of 2.5 liter/min, as per IACUC recommendations).
The ON axotomy model in the rat (Bai et al., 2010a) was used. […]
as §5
(§7) Quantification of labeled RGCs was performed as reported (Shi et al., 2007; Shi et al., 2008). […] Pictures for each freshly flat-mounted retina were taken using a Zeiss fluorescence microscope (Carl Zeiss Meditec, Jena, Germany), with 12 pictures/retina at 20× magnification. […]

[8] = tested on: retinal ganglion cells (RGCs); test: Glaucoma (episcleral vein cauterization) model, quantification of surviving RGCs; format: in vivo; conditions: rat glaucoma, intravitreal injections days 14 and 21, endpoint day 42 (FIG. 2D)
Procedure: as §6
The episcleral vein cauterization (EVC) model of rat (Shi et al., 2007; Shi et al., 2008) was used. […]
as §5, §7

[9] = competitive ELISA, FIG. 1A, compound at 30 μM

T2 sequence (P04629 33-423 limits assumed): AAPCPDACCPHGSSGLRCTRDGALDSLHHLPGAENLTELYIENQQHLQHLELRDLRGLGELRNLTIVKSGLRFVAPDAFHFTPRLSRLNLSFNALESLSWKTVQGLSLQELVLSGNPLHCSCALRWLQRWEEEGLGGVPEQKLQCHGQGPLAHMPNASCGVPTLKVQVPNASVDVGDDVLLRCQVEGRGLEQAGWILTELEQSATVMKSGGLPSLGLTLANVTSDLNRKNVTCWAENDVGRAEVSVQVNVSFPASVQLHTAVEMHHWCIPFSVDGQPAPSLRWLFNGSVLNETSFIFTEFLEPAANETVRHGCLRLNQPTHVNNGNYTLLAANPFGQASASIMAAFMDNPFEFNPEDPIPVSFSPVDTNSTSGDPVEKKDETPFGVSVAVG

Molecule	remaining activity at 30 µM [1] [%]	TrkA-Fc binding AVERAGE [3] [%]	other results
CCCn1c(=O)c2c(ncn2CC(=O)OC)n(CCC)c1=O [II-N, Methyl 2-(2,6-dioxo-1,3-dipropyl-2,3-dihydro-1H-purin-7(6H)-yl)acetate]	83	–	–
Cn1c(=O)c2c(ncn2CC(=O)OCCCN)n(C)c1=O [II-D, 3′-Aminopropyl (1,3-dimethyl-2,6-dioxo-2,3-dihydro-1H-purin-7(6H)-yl)acetate]	69	116	NGF30 binding AVERAGE [2]: 91%
CC(C)NC(=O)N(C(=O)Cc1c[nH]c2ccccc12)C(C)C [I-Q, 2-(1H-indol-3-yl)-N-isopropyl-N-(isopropylcarbamoyl)acetamide]	53	–	–
Pro-NGF: precursor of nerve growth factor (Alomone Labs), pro-apoptotic p75 ligand	–	–	cell viability (MTT), growth factor alone [4]: reduced the viability; cell viability (MTT), growth factor alone [5]: reduced the viability
Cc1ccc(NC(=O)N(C(=O)CCc2c[nH]c3ccccc23)c2ccc(C)cc2)cc1 [I-S, 3-(1H-indol-3-yl)-N-p-tolyl-N-(p-tolylcarbamoyl)propanamide]	56	–	–
COC(=O)Cn1cnc2c1c(=O)n(C)c(=O)n2C [II-H]	72	94	–
Cn1c(=O)c2c(ncn2CC(=O)NCCC(F)(F)F)n(C)c1=O [I-F, 2-(1,3-dimethyl-2,6-dioxo-2,3-dihydro-1H-purin-7(6H)-yl)-N-(3,3,3-trifluoropropyl)acetamide]	73	91	–
CC(C)NC(=O)N(C(=O)CCc1c[nH]c2ccccc12)C(C)C [I-R, 3-(1H-indol-3-yl)-N-isopropyl-N-(isopropylcarbamoyl)propanamide]	59	–	–
Cn1c(=O)c2c(ncn2CC(=O)OCCCNC(=O)OCc2ccccc2)n(C)c1=O [II-E, 3′-(Benzyloxycarbonylamino)propyl (1,3-dimethyl-2,6-dioxo-2,3-dihydro-1H-purin-7(6H)-yl)acetate]	56	94	NGF30 binding AVERAGE [2]: 89%
CN(C)CCCNC(=O)Cn1cnc2c1c(=O)n(C)c(=O)n2C [LM-24, reference compound]	–	–	effect on mAb NGF30 binding to NGF [2, 9]: did not interfere; effect on NGF-p75NTR interaction [1, 9]: antagonized NGF-p75NTR interactions selectively; preservation of NGI thickness (FD-OCT) [6]: very limited preservation of the NGI thickness; RGCs surviving [7]: 21%; prevention of RGC death [8]: significantly prevent the death of RGCs; effect on binding of TrkA to NGF [3, 9]: did not interfere
Cn1c(=O)c2c(ncn2CC(=O)NCCCC(F)(F)F)n(C)c1=O [I-A, 2-(1,3-dimethyl-2,6-dioxo-2,3-dihydro-1H-purin-7(6H)-yl)-N-(4,4,4-trifluorobutyl)acetamide]	74	105	NGF30 binding AVERAGE [2]: 86%
Cn1c(=O)c2c(ncn2CC(=O)N(C(=O)NC2CCCCC2)C2CCCCC2)n(C)c1=O [I-G]	62	99	–
B1	–	–	cell viability (MTT), growth factor alone [4]: reduced the viability; cell viability (MTT), growth factor alone [5]: reduced the viability
